Data as given in ChEMBL document CHEMBL4725365, “Modified tetra-oxygenated xanthones analogues as anti-MRSA and P. aeruginosa agent and their synergism with vancomycin” (2020).
≈ marks a conversion by molar mass, not a printed value. Calls of active or inactive are those of the source. The calls are words filed in the database; no cut-off is given here.

Assays:
Shigella sonnei = experiment: Antibacterial activity against Shigella sonnei; type: functional
Staphylococcus aureus [1] = experiment: Antibacterial activity against methicillin-resistant Staphylococcus aureus ATCC 43300; type: functional
Bacillus subtilis = experiment: Antibacterial activity against Bacillus subtilis; type: functional
Pseudomonas aeruginosa [2] = experiment: Antibacterial activity against Pseudomonas aeruginosa; type: functional
Enterococcus faecalis [3] = experiment: Antibacterial activity against Enterococcus faecalis TISTR 459; type: functional
Salmonella typhi = experiment: Antibacterial activity against Salmonella typhi; type: functional, Salmonella enterica subsp. enterica serovar Typhi; conditions: Salmonella enterica
Enterococcus faecalis [4] = experiment: Antibacterial activity against vancomycin-resistant Enterococcus faecalis ATCC 51299; type: functional
Staphylococcus aureus [5] = experiment: Synergistic antibacterial activity against methicillin-resistant Staphylococcus aureus ATCC 43300 assessed as fractional inhibitory concentration index in presence of vancomycin; type: functional
Pseudomonas aeruginosa [6] = experiment: Induction of morphological changes in Pseudomonas aeruginosa assessed as cell deformation incubated for 24 hrs by scanning electron microscopic method; type: functional, organism-based
Pseudomonas aeruginosa [7] = experiment: Synergistic antibacterial activity against Pseudomonas aeruginosa in presence of vancomycin; type: functional
Staphylococcus aureus [8] = experiment: Induction of morphological changes in methicillin-resistant Staphylococcus aureus ATCC 43300 assessed as cell deformation incubated for 24 hrs by scanning electron microscopic method; type: functional, organism-based
Pseudomonas aeruginosa [9] = experiment: Synergistic antibacterial activity against Pseudomonas aeruginosa assessed as fractional inhibitory concentration index in presence of vancomycin; type: functional
Staphylococcus aureus [10] = experiment: Synergistic antibacterial activity against methicillin-resistant Staphylococcus aureus ATCC 43300 in presence of vancomycin; type: functional
Pseudomonas aeruginosa [11] = experiment: Induction of morphological changes in Pseudomonas aeruginosa assessed as cell deformation incubated for 24 hrs in presence of vancomycin by scanning electron microscopic method; type: functional, organism-based
Staphylococcus aureus [12] = experiment: Induction of morphological changes in methicillin-resistant Staphylococcus aureus ATCC 43300 assessed as cell deformation at MIC incubated for 24 hrs in presence of vancomycin by scanning electron microscopic method; type: functional, organism-based

Row | Compound | MIC (Shigella sonnei) [µg/mL] | MIC (Staphylococcus aureus [1]) [µg/mL] | MIC (Bacillus subtilis) [µg/mL] | MIC (Pseudomonas aeruginosa [2]) [µg/mL] | MIC (Enterococcus faecalis [3]) [µg/mL] | MIC (Salmonella typhi) [µg/mL] | MIC (Enterococcus faecalis [4]) [µg/mL] | fractional inhibitory concentration index (FICI) (Staphylococcus aureus [5]) | Activity (Pseudomonas aeruginosa [6]) | MIC (Pseudomonas aeruginosa [7]) [µg/mL] | Activity (Staphylococcus aureus [8]) | fractional inhibitory concentration index (FICI) (Pseudomonas aeruginosa [9]) | MIC (Staphylococcus aureus [10]) [µg/mL] | Activity (Pseudomonas aeruginosa [11]) | Activity (Staphylococcus aureus [12])
1 | COc1cc2oc3cc(O)c(CC=C(C)C)c(O)c3c(=O)c2c(CC=C(C)C)c1OC | 150 (≈ 353 µM) | 18.8 (≈ 44.2 µM) | 75 (≈ 177 µM) | 18.8 (≈ 44.2 µM) | 75 (≈ 177 µM) | 150 (≈ 353 µM) | – | – | – | – | – | – | – | – | –
2 | COc1cc2oc3cc(O)c(OC)c(CC=C(C)C)c3c(=O)c2c2c1CCC(C)(C)O2 | 300 (≈ 707 µM) | > 300 | 75 (≈ 177 µM) | 300 (≈ 707 µM) | 75 (≈ 177 µM) | 300 (≈ 707 µM) | 150 (≈ 353 µM) | – | – | – | – | – | – | – | –
3 | O=c1c2cc(O)c(O)cc2oc2cc(O)cc(O)c12 | > 300 | 18.8 (≈ 72.1 µM) | 37.5 (≈ 144 µM) | 37.5 (≈ 144 µM) | 300 (≈ 1150 µM) | > 300 | > 300 | – | – | – | – | – | – | – | –
4 | COc1c(O)cc2oc3cc(O)c(CC=C(C)C)c(O)c3c(=O)c2c1CC=C(C)C [MANGOSTIN] | 150 (≈ 365 µM) | 0.585 (≈ 1.43 µM) | 2.34 (≈ 5.7 µM) | 0.292 (≈ 0.713 µM) | 150 (≈ 365 µM) | 18.8 (≈ 45.7 µM) | 150 (≈ 365 µM) | 0.375 | Active | 0.439 | Active | 0.187 | 0.877 | – | –
5 | COc1c(O)cc2oc3cc4c(c(O)c3c(=O)c2c1CCC(C)(C)OC)CCC(C)(C)O4 | 300 (≈ 678 µM) | 9.37 (≈ 21.2 µM) | 9.37 (≈ 21.2 µM) | 75 (≈ 169 µM) | > 300 | 300 (≈ 678 µM) | > 300 | – | – | – | – | – | – | – | –
6 | COc1cc2oc3cc(O)c(OC)c(CC=C(C)C)c3c(=O)c2c(O)c1CC=C(C)C | > 300 | 4.68 (≈ 11 µM) | 2.34 (≈ 5.51 µM) | 9.37 (≈ 22.1 µM) | 300 (≈ 707 µM) | > 300 | 300 (≈ 707 µM) | – | – | – | – | – | – | – | –
7 | CN[C@H](CC(C)C)C(=O)N[C@H]1C(=O)N[C@@H](CC(N)=O)C(=O)N[C@H]2C(=O)N[C@H]3C(=O)N[C@H](C(=O)N[C@H](C(=O)O)c4cc(O)cc(O)c4-c4cc3ccc4O)[C@H](O)c3ccc(c(Cl)c3)Oc3cc2cc(c3O[C@@H]2O[C@H](CO)[C@@H](O)[C@H](O)[C@H]2O[C@H]2C[C@](C)(N)[C@H](O)[C@H](C)O2)Oc2ccc(cc2Cl)[C@H]1O [VANCOMYCIN] | 2.34 (≈ 1.61 µM) | 2.34 (≈ 1.61 µM) | 2.34 (≈ 1.61 µM) | 2.34 (≈ 1.61 µM) | 2.34 (≈ 1.61 µM) | 2.34 (≈ 1.61 µM) | 2.34 (≈ 1.61 µM) | – | – | – | – | – | – | – | –
8 | COc1cc2oc3cc(O)c(OC)c(CCC(C)C)c3c(=O)c2c(O)c1CCC(C)C | 150 (≈ 350 µM) | 37.5 (≈ 87.5 µM) | 150 (≈ 350 µM) | 150 (≈ 350 µM) | 75 (≈ 175 µM) | 150 (≈ 350 µM) | – | – | – | – | – | – | – | – | –
9 | COc1c(OS(=O)(=O)c2ccc(Br)cc2)cc2oc3cc(OS(=O)(=O)c4ccc(Br)cc4)c(CC=C(C)C)c(O)c3c(=O)c2c1CC=C(C)C | > 300 | > 300 | > 300 | 300 (≈ 354 µM) | > 300 | > 300 | – | – | – | – | – | – | – | – | –
10 | CC(C)=CCc1c(O)cc2oc3cc(O)c(O)c(CC=C(C)C)c3c(=O)c2c1O | 18.8 (≈ 47.3 µM) | 4.68 (≈ 11.8 µM) | 18.8 (≈ 47.3 µM) | 18.8 (≈ 47.3 µM) | 9.37 (≈ 23.6 µM) | 18.8 (≈ 47.3 µM) | – | – | – | – | – | – | – | – | –
11 | COc1cc2oc3cc(O)c(OC)c(CCC(C)(C)O)c3c(=O)c2c(O)c1CC=C(C)C | 300 (≈ 678 µM) | 18.8 (≈ 42.4 µM) | 9.37 (≈ 21.2 µM) | 18.8 (≈ 42.4 µM) | 150 (≈ 339 µM) | 300 (≈ 678 µM) | > 300 | – | – | – | – | – | – | – | –
12 | COc1c(O)cc2oc3cc4c(c(O)c3c(=O)c2c1CC=C(C)C)CCC(C)(C)O4 | 300 (≈ 731 µM) | 1.17 (≈ 2.85 µM) | 2.34 (≈ 5.7 µM) | 2.34 (≈ 5.71 µM) | > 300 | 300 (≈ 731 µM) | > 300 | 0.75 | Active | 2.63 | Active | 0.375 | 1.75 | – | –
13 | COc1c(O)cc2oc3cc4c(c(O)c3c(=O)c2c1CCC(C)(C)O)CCC(C)(C)O4 | 300 (≈ 700 µM) | 18.8 (≈ 43.8 µM) | 18.8 (≈ 43.8 µM) | 75 (≈ 175 µM) | > 300 | 150 (≈ 350 µM) | > 300 | 0.375 | Active | 9.52 | Active | 0.187 | 4.98 | Active | Active
14 | COc1cc2oc3cc(O)c(OC)c(CCC(C)(C)O)c3c(=O)c2c2c1CCC(C)(C)O2 | 300 (≈ 678 µM) | 150 (≈ 339 µM) | 150 (≈ 339 µM) | 300 (≈ 678 µM) | > 300 | 300 (≈ 678 µM) | > 300 | – | – | – | – | – | – | – | –
15 | COc1c(OCC=C(C)C)cc2oc3cc(OCC=C(C)C)c(CC=C(C)C)c(O)c3c(=O)c2c1CC=C(C)C | > 300 | > 300 | > 300 | 300 (≈ 549 µM) | 300 (≈ 549 µM) | > 300 | – | – | – | – | – | – | – | – | –
16 | COc1c(O)cc2oc3cc(O)c4c(c3c(=O)c2c1CCC(C)(C)O)OC(C)(C)CC4 | 300 (≈ 700 µM) | 37.5 (≈ 87.5 µM) | 37.5 (≈ 87.5 µM) | 300 (≈ 700 µM) | > 300 | 300 (≈ 700 µM) | > 300 | – | – | – | – | – | – | – | –
17 | COc1cc2oc3cc(O)c(O)c(CC=C(C)C)c3c(=O)c2c(O)c1CC=C(C)C | 150 (≈ 365 µM) | 9.37 (≈ 22.8 µM) | 18.8 (≈ 45.7 µM) | 18.8 (≈ 45.7 µM) | 300 (≈ 731 µM) | 150 (≈ 365 µM) | 300 (≈ 731 µM) | – | – | – | – | – | – | – | –
18 | COc1cc2oc3cc(O)c(CC=C(C)C)c(O)c3c(=O)c2c(CC=C(C)C)c1O | 75 (≈ 183 µM) | 9.37 (≈ 22.8 µM) | 75 (≈ 183 µM) | 4.67 (≈ 11.4 µM) | 75 (≈ 183 µM) | 37.5 (≈ 91.4 µM) | – | – | – | – | – | – | – | – | –
19 | COc1cc2oc3cc(O)c(OC)c(CCC(C)(C)OC(C)=O)c3c(=O)c2c2c1CCC(C)(C)O2 | 300 (≈ 619 µM) | > 300 | 300 (≈ 619 µM) | 300 (≈ 619 µM) | > 300 | 300 (≈ 619 µM) | > 300 | – | – | – | – | – | – | – | –
20 | COc1cc2oc3cc(OC)c(OC)c(CC=C(C)C)c3c(=O)c2c(O)c1CC=C(C)C | > 300 | > 300 | 75 (≈ 171 µM) | 300 (≈ 684 µM) | 150 (≈ 342 µM) | 300 (≈ 684 µM) | 300 (≈ 684 µM) | – | – | – | – | – | – | – | –
